# Measured values as given in patent US20160175293A1, “PIM KINASE INHIBITOR COMBINATIONS” (priority 2013, published 2016).
# Assays:
# [1] = tested on: MOLM-13; experiment: Cell Titer Glo viability, dose matrix, Chalice analysis; format: cell-based
# Protocol: (§1) Compound stock was freshly prepared in the appropriate culture medium and manually added to the plates by electronic multichannel pipette in three replicates. […] The viability of cells was assessed after 72 hours of treatment by quantification of cellular ATP levels via Cell Titer Glo (Promega #G7571) according to the manufacturer's protocol. Plates were read on a luminescence plate reader (Victor X4, Perkin Elmer).
# (§2) Each compound is diluted threefold times and the dashes below represent the threefold dilution between each number.
# [2] = tested on: MV-4-11; experiment: as above; format: cell-based
# Protocol: as §1, §2
# [3] = tested on: KMS-12-BM; experiment: mouse xenograft model KMS-12-BM; format: in vivo; settings: single agent Compound B
smiles,measurement,setting,value
"CO[C@@H]1[C@H](N(C)C(=O)c2ccccc2)C[C@H]2O[C@]1(C)n1c3ccccc3c3c4c(c5c6ccccc6n2c5c31)C(=O)NC4 [PKC412, midostaurin]",single agent activity,[1],active
same,single agent activity,[2],active
"C[C@@H]1C[C@H](N)C[C@H](c2ccncc2NC(=O)c2ccc(F)c(-c3c(F)cccc3F)n2)C1 [Compound A, N-(4-((1R,3S,5S)-3-amino-5-methylcyclohexyl)pyridin-3-yl)-6-(2,6-difluorophenyl)-5-fluoropicolinamide]",PK exposure at steady state,"Day 14 (steady state), 200 mg to 350 mg dose",plateau
same,PK exposure (Cmax AUC) dose proportionality,"dose range of 70 mg-250 mg, Day 1",over proportional
same,increase of exposure at 500 mg compared to 200 mg to 350 mg dose,steady state,about 2 fold
"Cc1nc(NC(=O)N2CCC[C@H]2C(N)=O)sc1-c1ccnc(C(C)(C)C(F)(F)F)c1 [Compound B, (S)-pyrrolidine-1,2-dicarboxylic acid 2-amide 1-({4-methyl-5-[2-(2,2,2-trifluoro-1,1-dimethyl-ethyl)-pyridin-4-yl]-thiazol-2-yl}-amide)]",anti-tumor activity,[3],did not demonstrate in anti-tumor activity
